Experimental data from US12077503B2, “Substituted cyclic amides and their use as herbicides” (FMC CORPORATION, priority 2015, dated 2024).

Key:
Type in all cases: in vivo
Kochia (Kochia scoparia) [1] = assay: Test A preemergence; settings: Bassia scoparia, pre-emergence, 240 h
How it was run: (§1)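 Visual injury scores from 0, no effect, to 100, complete control, were assigned versus untreated controls roughly 10 d after treatment in the greenhouse. Test chemicals, formulated with surfactant in a non-phytotoxic solvent, were applied to planted seeds as a preemergence soil spray or postemergence to one- to two-leaf plants 2 to 10 cm tall, in loam–sand soil.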

[2] = tested on: ragweed (common ragweed, Ambrosia elatior); assay: Test A preemergence; settings: Ambrosia artemisiifolia, pre-emergence, 240 h
How it was run: as §1

[3] = tested on: ryegrass, Italian (Italian ryegrass, Lolium multiflorum); assay: Test A preemergence; settings: Lolium multiflorum, pre-emergence, 240 h
How it was run: as §1

[4] = tested on: pigweed (Amaranthus retroflexus); assay: Test A preemergence; settings: Amaranthus retroflexus, pre-emergence, 240 h
[5] = tested on: giant foxtail (Setaria faberii); assay: Test A preemergence; settings: Setaria faberi, pre-emergence, 240 h
How it was run: as §1

[6] = tested on: barnyardgrass (Echinochloa crus-galli); assay: Test A preemergence; settings: Echinochloa crus-galli, pre-emergence, 240 h
How it was run: as §1

[7] = tested on: sedge, umbrella (small-flower umbrella sedge, Cyperus difformis); assay: Test B flooded paddy test; settings: Cyperus difformis, Flood, 250 g ai/ha; scale of 0 to 100 where 0 is no effect and 100 is complete control; read-out: Sedge, Umbrella plant response rating
How it was run: (§2)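 Response scored visually against untreated controls, 0 = no effect and 100 = complete control, 13–15 d after treatment in the greenhouse. Compounds added to paddy water held 3 cm above soil surface. Treatment given at 2-leaf stage.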

rice (Oryra sativa) = assay: Test B flooded paddy test; settings: Oryza sativa, Flood, 250 g ai/ha; scale of 0 to 100 where 0 is no effect and 100 is complete control; read-out: Rice plant response rating
How it was run: as §2

[8] = tested on: ducksalad (Heteranthera limosa); assay: Test B flooded paddy test; settings: Heteranthera limosa, Flood, 250 g ai/ha; scale of 0 to 100 where 0 is no effect and 100 is complete control; read-out: Ducksalad plant response rating
How it was run: as §2

[9] = tested on: barnyardgrass (Echinochloa crus-galli); assay: Test B flooded paddy test; settings: Echinochloa crus-galli, Flood, 250 g ai/ha; scale of 0 to 100 where 0 is no effect and 100 is complete control; read-out: Barnyardgrass plant response rating
How it was run: as §2

Kochia (Kochia scoparia) [10] = assay: Test A postemergence; settings: Bassia scoparia, post-emergence, 240 h, 125 g ai/ha, Postemergence; visual injury after approximately 10 d; 0 to 100 scale where 0 is no effect and 100 is complete control; read-out: Plant response rating, Kochia
How it was run: as §1

[11] = tested on: blackgrass (Alopecurus myosuroides); assay: Test A postemergence; settings: Alopecurus myosuroides, post-emergence, 240 h, 125 g ai/ha, Postemergence; visual injury after approximately 10 d; 0 to 100 scale where 0 is no effect and 100 is complete control; read-out: Plant response rating, Blackgrass
How it was run: as §1

[12] = tested on: ragweed (common ragweed, Ambrosia elatior); assay: Test A postemergence; settings: Ambrosia artemisiifolia, post-emergence, 240 h, 125 g ai/ha, Postemergence; visual injury after approximately 10 d; 0 to 100 scale where 0 is no effect and 100 is complete control; read-out: Plant response rating, Ragweed
How it was run: as §1

[13] = tested on: Galium (catchweed bedstraw, Galium aparine); assay: Test A postemergence; settings: Galium, post-emergence, 240 h, 125 g ai/ha, Postemergence; visual injury after approximately 10 d; 0 to 100 scale where 0 is no effect and 100 is complete control; read-out: Plant response rating, Galium
How it was run: as §1

[14] = tested on: wheat (Triticum aestivum); assay: Test A postemergence; settings: Triticum aestivum, post-emergence, 240 h, 125 g ai/ha, Postemergence; visual injury after approximately 10 d; 0 to 100 scale where 0 is no effect and 100 is complete control; read-out: Plant response rating, Wheat
How it was run: as §1

corn (Zea mays) = assay: Test A postemergence; settings: Zea mays, post-emergence, 240 h, 125 g ai/ha, Postemergence; visual injury after approximately 10 d; 0 to 100 scale where 0 is no effect and 100 is complete control
How it was run: as §1

[15] = tested on: ryegrass, Italian (Italian ryegrass, Lolium multiflorum); assay: Test A postemergence; settings: Lolium multiflorum, post-emergence, 240 h, 125 g ai/ha, Postemergence; visual injury after approximately 10 d; 0 to 100 scale where 0 is no effect and 100 is complete control; read-out: Plant response rating, Ryegrass, Italian
How it was run: as §1

[16] = tested on: pigweed (Amaranthus retroflexus); assay: Test A postemergence; settings: Amaranthus retroflexus, post-emergence, 240 h, 125 g ai/ha, Postemergence; visual injury after approximately 10 d; 0 to 100 scale where 0 is no effect and 100 is complete control; read-out: Plant response rating, Pigweed
How it was run: as §1

[17] = tested on: giant foxtail (Setaria faberii); assay: Test A postemergence; settings: Setaria faberi, post-emergence, 240 h, 125 g ai/ha, Postemergence; visual injury after approximately 10 d; 0 to 100 scale where 0 is no effect and 100 is complete control; read-out: Plant response rating, Foxtail, Giant
How it was run: as §1

[18] = tested on: barnyardgrass (Echinochloa crus-galli); assay: Test A postemergence; settings: Echinochloa crus-galli, post-emergence, 240 h, 125 g ai/ha, Postemergence; visual injury after approximately 10 d; 0 to 100 scale where 0 is no effect and 100 is complete control; read-out: Plant response rating, Barnyardgrass
How it was run: as §1

Question: Which pest or weed control at 125 g/ha (Kochia (Kochia scoparia) [1]; 125 g ai/ha, Preemergence, visual injury rating after approximately 10 d, read-out: Kochia plant response rating (0 to 100 scale, 0 is no effect, 100 is complete control)) does the source give for `O=C1NC[C@H](c2cc(C(F)(F)F)cs2)[C@H]1C(=O)Nc1cccc(F)c1F` [Compound 961] here?
Answer: 70%

Question: And the pest or weed control at 500 g/ha (Kochia (Kochia scoparia) [1]; 500 g ai/ha, preemergence, visual injury rating about 10 d after treatment, 0 to 100 scale (0 no effect, 100 complete control), read-out: Kochia plant response rating)?
Answer: 90%

Question: What about the pest or weed control at 125 g/ha ([2]; 125 g ai/ha, Preemergence, visual injury rating after approximately 10 d, read-out: Ragweed plant response rating (0 to 100 scale, 0 is no effect, 100 is complete control)) of the same compound?
Answer: 60%

Question: What about the pest or weed control at 500 g/ha ([2]; 500 g ai/ha, preemergence, visual injury rating about 10 d after treatment, 0 to 100 scale (0 no effect, 100 complete control), read-out: Ragweed plant response rating) of the same compound?
Answer: 90%

Question: And the pest or weed control at 125 g/ha ([3]; 125 g ai/ha, Preemergence, visual injury rating after approximately 10 d, read-out: Ryegrass, Italian plant response rating (0 to 100 scale, 0 is no effect, 100 is complete control))?
Answer: 30%

Question: What about the pest or weed control at 500 g/ha ([3]; 500 g ai/ha, preemergence, visual injury rating about 10 d after treatment, 0 to 100 scale (0 no effect, 100 complete control), read-out: Ryegrass, Italian plant response rating) of the same compound?
Answer: 80%

Question: And the pest or weed control at 125 g/ha ([4]; 125 g ai/ha, Preemergence, visual injury rating after approximately 10 d, read-out: Pigweed plant response rating (0 to 100 scale, 0 is no effect, 100 is complete control))?
Answer: 0%

Question: What about the pest or weed control at 500 g/ha ([4]; 500 g ai/ha, preemergence, visual injury rating about 10 d after treatment, 0 to 100 scale (0 no effect, 100 complete control), read-out: Pigweed plant response rating) of the same compound?
Answer: 30%

Question: And the pest or weed control at 125 g/ha ([5]; 125 g ai/ha, Preemergence, visual injury rating after approximately 10 d, read-out: Foxtail, Giant plant response rating (0 to 100 scale, 0 is no effect, 100 is complete control))?
Answer: 70%

Question: And the pest or weed control at 500 g/ha ([5]; 500 g ai/ha, preemergence, visual injury rating about 10 d after treatment, 0 to 100 scale (0 no effect, 100 complete control), read-out: Foxtail, Giant plant response rating)?
Answer: 90%

Question: And the pest or weed control at 125 g/ha ([6]; 125 g ai/ha, Preemergence, visual injury rating after approximately 10 d, read-out: Barnyardgrass plant response rating (0 to 100 scale, 0 is no effect, 100 is complete control))?
Answer: 90%

Question: And the pest or weed control at 500 g/ha ([6]; 500 g ai/ha, preemergence, visual injury rating about 10 d after treatment, 0 to 100 scale (0 no effect, 100 complete control), read-out: Barnyardgrass plant response rating)?
Answer: 90%

Question: And the pest or weed control at 250 g/ha [7]?
Answer: 0%

Question: And the pest or weed control at 250 g/ha (rice (Oryra sativa))?
Answer: 20%

Question: And the pest or weed control at 250 g/ha [8]?
Answer: 100%

Question: What about the pest or weed control at 250 g/ha [9] of the same compound?
Answer: 40%

Question: What about the pest or weed control at 125 g/ha (Kochia (Kochia scoparia) [10]) of the same compound?
Answer: 50%

Question: What about the pest or weed control at 125 g/ha [11] of the same compound?
Answer: 30%

Question: And the pest or weed control at 125 g/ha [12]?
Answer: 20%

Question: And the pest or weed control at 125 g/ha [13]?
Answer: 30%

Question: What about the plant injury at 125 g/ha [14] of the same compound?
Answer: 0%

Question: And the Corn plant response rating (crop injury, 0 = no effect, 100 = complete kill) at 125 g/ha (corn (Zea mays))?
Answer: 20%

Question: What about the pest or weed control at 125 g/ha [15] of the same compound?
Answer: 20%

Question: And the pest or weed control at 125 g/ha [16]?
Answer: 0%

Question: What about the pest or weed control at 125 g/ha [17] of the same compound?
Answer: 30%

Question: And the pest or weed control at 125 g/ha [18]?
Answer: 90%
